Source: patent publication US8029770B2 (Rutgers, The State University, priority 2003, dated 2011)
Entries after “also recorded” stand apart in the source; their conditions may differ. Where two headings read alike, the source gives them in different places. Marks after values point to notes of the source that are not given here.

What was measured:
[1] = system: UVB-induced skin tumors in high risk SKH-1 mice
[2] = Weight of mouse during topical treatment of UVB-pretreated high risk SKH-1 mice; format: in vivo
Description: Female SKH-1 mice were treated with 30 mJ/cm^2 of UVB twice a week for 20 weeks.

[3] = system: apoptotic sunburn cells in the epidermis of SKH-1 mice; experiment: UVB-induced apoptotic sunburn cells in the epidermis of SKH-1 mice after topical application; format: in vivo, mouse
Description: Chemicals and Animals. […] Female SKH-1 hairless mice (6 to 7 weeks old) were purchased from the Charles River Breeding Laboratories, and the animals were kept in an animal facility for at least one week before use at 7 to 8 weeks of age. Mice were given water and PURINA® Laboratory CHOW® 5001 diet from Ralston-Purina (St. […] For the analysis conducted herein, 5 mice were used per group. Treatment of Mice with UVB. […] The radiation was further calibrated with a model IL-1700 research radiometer/photometer (International Light, Newburyport, Mass.). Measurement of apoptotic sunburn cells. Identification of apoptoic sunburn cells was based morphologically on cell shrinkage and nuclear condensation due to fragmentation of the cells. […] Six hours after UVB, the animals were sacrificed and apoptotic sunburn cells in the epidermis were determined morphologically. […] Six hours after UVB, the animals were sacrificed and apoptotic sunburn cells in the epidermis were determined morphologically. […] Acetone Formulation. […] Six hours after UVB, the animals were sacrificed and apoptotic sunburn cells in the epidermis were determined morphologically. […] […] Formulations. […] Six hours after UVB the animals were sacrificed and apoptotic sunburn cells in the epidermis were determined morphologically. […] Six hours after UVB the animals were sacrificed and apoptotic sunburn cells in the epidermis were determined morphologically.

[4] = system: apoptotic sunburn cells in the epidermis of FVB mice; experiment: UVB-induced apoptotic sunburn cells in FVB mice, topical caffeine; format: in vivo, mouse; conditions: 1.2 mg (6.2 μmole) in 100 μL acetone immediately, 0.5 and 2 hours after UVB 60 mJ/cm2; 6 hours
Source text: Apoptotic sunburn cells were identified by changes in morphology and counted.

cyclin B1 = experiment: Epidermal cyclin B1 in UVB-treated mice, western blot and immunohistochemistry; format: in vivo, mouse
[5] = system: UVB-induced skin lesions in SKH-1 mice; experiment: Prevention of UVB-induced skin (sunburn) lesions, sunscreen effect; format: in vivo, mouse; conditions: 4.8% caffeine or 8.0% caffeine sodium benzoate (24 μmoles) in 100 mg DERMABASE 30 minutes before UVB 180 mJ/cm^2 on two consecutive days (FIG. 2)
Description: The areas (mm^2) and the intensity of red color in UVB-induced skin lesion were estimated semi-quantitatively 5 days after first UVB treatment. The lesion index were calculated as the lesion area multiplied by the arbitrary intensity: 0, no lesion; 1 barely detectable red lesion; 2 moderate red lesion, and 3, bright red lesion.
Outdoor occupational human exposure to UVB or a sunbathing exposure in the summer has been reported to range from 50-100 mJ/cm^2 per day (Larko, et al. (1983) Clin. Exp. Dermatol. 8:279-285; Diffey (1991) Phys. Med. Biol. 36:299-328).

phospho-Chk2 (Ser387) = experiment: Epidermal phospho-Chk2 (Ser387) in UVB-treated mice, western blot; format: in vivo, mouse; conditions: topical immediately after UVB 30 mJ/cm2; 6 hours

## Cn1c(=O)c2c(ncn2C)n(C)c1=O [Caffeine, caffeine]
[1]; week 0, 1.2% CF in DERMABASE
  No. of large tumors (diameter > 5 mm): 0
  Tumor volume per mouse (all mice) (mm^3): 0 mm^3
  Tumor volume per tumor (mm^3): 0 mm^3
  Tumors per mouse: 0
[1]; week 0, 3.6% CF in DERMABASE
  No. of large tumors (diameter > 5 mm): 0
  Tumor volume per mouse (all mice) (mm^3): 0 mm^3
  Tumor volume per tumor (mm^3): 0 mm^3
  Tumors per mouse: 0
[1]; week 5, 1.2% CF in DERMABASE
  No. of large tumors (diameter > 5 mm): 0
  Tumor volume per mouse (all mice) (mm^3): 0.1 ± 0.0 mm^3
  Tumor volume per tumor (mm^3): 0.5 ± 0.0 mm^3
  Tumors per mouse: 0.1 ± 0.1
[1]; week 5, 3.6% CF in DERMABASE
  No. of large tumors (diameter > 5 mm): 0
  Tumor volume per mouse (all mice) (mm^3): 0.1 ± 0.0 mm^3
  Tumor volume per tumor (mm^3): 0.5 ± 0.0 mm^3
  Tumors per mouse: 0.2 ± 0.1
[1]; week 7, 1.2% CF in DERMABASE
  No. of large tumors (diameter > 5 mm): 0
  Tumor volume per mouse (all mice) (mm^3): 0.4 ± 0.2 mm^3
  Tumor volume per tumor (mm^3): 1.3 ± 0.5 mm^3
  Tumors per mouse: 0.4 ± 0.1
[1]; week 7, 3.6% CF in DERMABASE
  No. of large tumors (diameter > 5 mm): 0
  Tumor volume per mouse (all mice) (mm^3): 0.3 ± 0.1 mm^3
  Tumor volume per tumor (mm^3): 1.3 ± 0.7 mm^3
  Tumors per mouse: 0.2 ± 0.1
[1]; week 9, 1.2% CF in DERMABASE
  No. of large tumors (diameter > 5 mm): 0
  Tumor volume per mouse (all mice) (mm^3): 2.0 ± 1.0 mm^3
  Tumor volume per tumor (mm^3): 3.3 ± 1.5 mm^3
  Tumors per mouse: 0.6 ± 0.2
[1]; week 9, 3.6% CF in DERMABASE
  No. of large tumors (diameter > 5 mm): 0
  Tumor volume per mouse (all mice) (mm^3): 0.8 ± 0.5 mm^3
  Tumor volume per tumor (mm^3): 1.9 ± 1.1 mm^3
  Tumors per mouse: 0.4 ± 0.1
[1]; week 11, 1.2% CF in DERMABASE
  No. of large tumors (diameter > 5 mm): 0
  Tumor volume per mouse (all mice) (mm^3): 3.7 ± 1.4 mm^3
  Tumor volume per tumor (mm^3): 3.5 ± 1.0 mm^3
  Tumors per mouse: 1.1 ± 0.3
[1]; week 11, 3.6% CF in DERMABASE
  No. of large tumors (diameter > 5 mm): 0
  Tumor volume per mouse (all mice) (mm^3): 1.6 ± 0.6 mm^3
  Tumor volume per tumor (mm^3): 1.3 ± 0.4 mm^3
  Tumors per mouse: 1.2 ± 0.3
[2]; week 0, 1.2% CF in DERMABASE
  Weight of mouse: 30.3 ± 0.5 g
[2]; week 0, 3.6% CF in DERMABASE
  Weight of mouse: 30.5 ± 0.6 g
[2]; week 5, 1.2% CF in DERMABASE
  Weight of mouse: 29.6 ± 0.5 g
[2]; week 5, 3.6% CF in DERMABASE
  Weight of mouse: 30.0 ± 0.5 g
[2]; week 7, 1.2% CF in DERMABASE
  Weight of mouse: 29.5 ± 0.5 g
[2]; week 7, 3.6% CF in DERMABASE
  Weight of mouse: 29.6 ± 0.5 g
[2]; week 9, 1.2% CF in DERMABASE
  Weight of mouse: 30.0 ± 0.4 g
[2]; week 9, 3.6% CF in DERMABASE
  Weight of mouse: 29.8 ± 0.5 g
[2]; week 11, 1.2% CF in DERMABASE
  Weight of mouse: 30.0 ± 0.5 g
[2]; week 11, 3.6% CF in DERMABASE
  Weight of mouse: 30.1 ± 0.5 g
[3]; 6.2 μmole (each) in 100 μL acetone:water (9:1) immediately after UVB 30 mJ/cm^2 and at 30 and 120 min, 6 h, mean ± S.E.
  Percent Sunburn Cells, UVB: 0.64 ± 0.15%
[3]; 6.2 μmole in 100 μL acetone right after UVB 30 mJ/cm^2 and at 30 and 120 min, 6 h after UVB, mean ± S.E.
  Percent Apoptotic Sunburn Cells: 0.506 ± 0.013^a %
[3]; 100 mg formulation (2.4% caffeine or 4.0% caffeine sodium benzoate, 12.4 μmole, in DERMABASE; or commercial product) immediately after UVB 30 mJ/cm^2, 6 h
  Percent Sunburn Cells, UVB: 1.96 ± 0.20^a %
[3]; 0.6% Caffeine in 100 mg DERMABASE immediately after UVB 30 mJ/cm^2, 6 h
  Percent Sunburn Cells, UVB: 0.40 ± 0.18^a %
[3]; 1.2% Caffeine in 100 mg DERMABASE immediately after UVB 30 mJ/cm^2, 6 h
  Percent Sunburn Cells, UVB: 0.58 ± 0.12^a %
[3]; 2.4% Caffeine in 100 mg DERMABASE immediately after UVB 30 mJ/cm^2, 6 h
  Percent Sunburn Cells, UVB: 0.58 ± 0.14^a %
[3]; 3.6% Caffeine in 100 mg DERMABASE immediately after UVB 30 mJ/cm^2, 6 h
  Percent Sunburn Cells, UVB: 0.82 ± 0.10^a %
[3]; 4.8% Caffeine in 100 mg DERMABASE immediately after UVB 30 mJ/cm^2, 6 h
  Percent Sunburn Cells, UVB: 0.96 ± 0.13^a %
[3]; DERMABASE vehicle, equimolar amounts (Table 4)
  enhancement of UVB-induced apoptosis in the epidermis, applied in DERMABASE: more effective at enhancing UVB-induced apoptosis when applied to the skin in DERMABASE™ than when applied to the skin in acetone
[3]; Exp-1, 6.2 μmole in acetone:water (9:1) x3 after UVB 30 mJ/cm^2, 6 h
  Percent Apoptotic Sunburn Cells: 0.51 ± 0.01%
[3]; Exp-2, 6.2 μmole in acetone:water (9:1) x3 after UVB 30 mJ/cm^2, 6 h
  Percent Apoptotic Sunburn Cells: 0.48 ± 0.04%
[3]; Table 1, vs acetone group, 6.2 μmole x3 after UVB 30 mJ/cm^2, 6 h
  % Induction: 148%
[3]; Table 2, vs acetone, 6.2 μmole in acetone:water (9:1)
  % Induction: 205%
[3]; Table 3 Exp-1, 6.2 μmole
  % Induction: 155%
[3]; Table 3 Exp-2, 6.2 μmole
  % Induction: 129%
[3]; Table 4, 0.6% Caffeine in DERMABASE
  % Induction: 100%
[3]; Table 4, 1.2% Caffeine in DERMABASE
  % Induction: 190%
[3]; Table 4, 2.4% Caffeine in DERMABASE
  % Induction: 190%
[3]; Table 4, 3.6% Caffeine in DERMABASE
  % Induction: 270%
[3]; Table 5, vs DERMABASE, 100 mg formulation after UVB
  % Induction: 284%
[4]
  enhancement of UVB-induced increase of apoptotic sunburn cells: 120-150%
Cyclin B1; UVB-treated mice, frozen sections, immunohistochemical
  percent of cyclin B1 positive cells in the epidermis: substantially enhanced
Cyclin B1; no UVB
  effect on cyclin B1 positive cells in the absence of UVB: little or no effect
Cyclin B1; topical immediately after UVB 30 mJ/cm2, western blot
  level of epidermal cyclin B1 vs UVB alone: increased substantially
[5]
  formation of UVB-induced sunburn (skin) lesions: inhibited the formation of sunburn lesions; also recorded: inhibited UVB-induced sunburn lesions
phospho-Chk2 (Ser387)
  UVB-induced increase in the level of phospho-Chk2 (Ser387): inhibited
